According to article PMC11521937, “Expression and characterization of pantothenate energy‐coupling factor transporters as an anti‐infective drug target” (Protein Science : A Publication of the Protein Society, 2024):
In brackets after ≈: the same amount, converted by molar mass. Read-outs that look alike come from different tables or passages of the source.

Experiments:
[1] = system: Streptococcus pneumoniae DSM‐20566; test: bacterial growth assay (MIC), S. pneumoniae DSM‐20566; assay type: cell-based
[2] = target: ECF‐PanT (Streptococcus pneumoniae, UniProt A0A0H2ZPG6+A0ACD7PRR9+Q04HV7+Q97N51); test: SPR binding to immobilized ECF‐PanT; conditions: for Kd: SPR, S. pneumoniae ECF‐PanT, n = 2; for kon: pH 7.5, read-out: k a; for koff: pH 7.5, read-out: k d
Procedure: (§1) The ECF‐PanT, ECF‐module, and ECF‐FolT2, each bearing a histidine tag, were immobilized on a high‐affinity poly‐nitrilotriacetic acid (poly‐NTA) sensor chip, which was initially activated using NiCl2.
(§2) Additionally, the protein was maintained in the buffer containing 5% (v/v) DMSO. For a more in‐depth description of the procedures, please refer to Appendix S1.
(§3) Surface plasmon resonance (SPR)
(§4) The SPR binding studies were performed using a Reichert 4SPR surface plasmon resonance spectrometer (Reichert Technologies, Buffalo, NY, USA), and medium–density NTA derivatized polycarboxylate hydrogel NiHC200M sensor chips (XanTec Bioanalytics, Düsseldorf, Germany). The experimental procedure involved two rounds of nickel activation and one immobilization step at a […]
(§5) standard protocol as provided by Xantec bioanalytics with a slight modification based on the recombinant proteins. The flow-cell 4 was left blank to serve as a reference.
(§6) The immobilization buffer employed for the immobilization process consisted of 10 mM HEPES with a pH of 7.5, 50 mM NaCl, 50 µM EDTA, and 0.05% DDM without DMSO. Following the immobilization step, for the binding study of the compounds, the running buffer was exchanged for the mentioned buffer with 5% v/v DMSO. This was done to ensure consistency in the percentage of DMSO present in the solutions containing the respective testing inhibitors, as these inhibitors were soluble in the DMSO solvent. By maintaining the same DMSO concentration, we aimed to minimize any potential solvent-related effects on the assay results. All running buffers were filtered and degassed before use.
(§7) The system was initially primed with 5 mM NiCl2 with an association and dissociation time of 2 min for each to activate the NTA sensor chip. Then, the recombinant proteins with a concentration of 200 nM were injected at a flow rate of 10 µL/min for 8 min. Finally, the baseline check with the running […]
(§8) First, the calibration curve for correction of the DMSO effect was prepared; the concentrations were […]
(§9) concentration of DMSO in all the samples was set to 5% v/v DMSO. The samples (200 µL) were loaded on a 96-well plate and were injected at a flow rate of 50 μL/min. Single-cycle kinetics were applied for KD determination. The association time was set to 60 s, and the dissociation phase was recorded for 120 s. For surface regeneration, 0.35 M EDTA (pH 8.5) and 0.1 M NaOH were used. Data processing and […]
(§10) were calculated by sequential subtractions of the corresponding curves obtained from the reference flow cell and the running buffer (blank). SPR responses were expressed in the resonance unit (RU). The KD values were calculated by global fitting of the kinetic curves as well as fitting of the steady state binding responses to a 1:1 Langmuir interaction model.
(§11) The SPR experiments were conducted at least two times, representing independent replicates. The […]
(§12) interactions, are presented in Figure S12 for ECF-PanT, Figure S13 for ECF-FolT2, and Figure S14 for […]

[3] = target: ECF‐FolT2 (Lactobacillus delbrueckii subsp. bulgaricus, UniProt Q1G929+Q1GBI8+Q1GBI9+Q1GBJ0); test: SPR binding to immobilized ECF‐FolT2; conditions: for Kd: n = 2
ECF‐FolT2, sequence (Q1GBJ0 whole entry): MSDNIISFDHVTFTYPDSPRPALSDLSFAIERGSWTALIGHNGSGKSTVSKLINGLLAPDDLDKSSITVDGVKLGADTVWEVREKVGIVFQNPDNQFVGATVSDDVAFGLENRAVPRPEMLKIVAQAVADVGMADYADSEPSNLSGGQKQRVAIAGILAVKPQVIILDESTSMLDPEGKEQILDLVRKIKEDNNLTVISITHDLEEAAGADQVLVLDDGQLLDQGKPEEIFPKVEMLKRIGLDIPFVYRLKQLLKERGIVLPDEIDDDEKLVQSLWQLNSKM
ECF‐FolT2, sequence (Q1GBI9 whole entry): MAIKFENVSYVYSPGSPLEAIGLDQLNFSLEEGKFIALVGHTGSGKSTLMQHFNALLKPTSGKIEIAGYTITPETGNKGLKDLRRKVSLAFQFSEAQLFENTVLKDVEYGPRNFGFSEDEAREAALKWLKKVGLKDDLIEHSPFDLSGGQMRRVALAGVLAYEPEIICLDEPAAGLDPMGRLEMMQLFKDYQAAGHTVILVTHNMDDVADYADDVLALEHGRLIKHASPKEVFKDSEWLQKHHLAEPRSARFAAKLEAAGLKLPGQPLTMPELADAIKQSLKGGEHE
ECF‐FolT2, sequence (Q1GBI8 entry or part of it): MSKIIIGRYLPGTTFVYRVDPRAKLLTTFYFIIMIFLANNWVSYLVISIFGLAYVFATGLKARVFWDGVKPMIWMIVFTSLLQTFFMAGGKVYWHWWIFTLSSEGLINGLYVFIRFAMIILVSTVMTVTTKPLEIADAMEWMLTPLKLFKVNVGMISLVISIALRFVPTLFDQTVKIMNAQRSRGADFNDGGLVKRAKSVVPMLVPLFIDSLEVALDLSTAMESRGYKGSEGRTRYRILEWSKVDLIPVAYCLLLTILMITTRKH
ECF‐FolT2, sequence (Q1G929 entry or part of it): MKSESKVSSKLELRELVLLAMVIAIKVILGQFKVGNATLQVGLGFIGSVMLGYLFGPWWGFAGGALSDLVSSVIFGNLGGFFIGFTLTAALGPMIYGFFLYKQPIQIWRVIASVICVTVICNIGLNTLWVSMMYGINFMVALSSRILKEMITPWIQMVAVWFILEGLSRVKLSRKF
Procedure: as §1, §2, §3, §4, §5, §6, §7, §8, §9, §10, §11, §12

[4] = In vitro MTT cytotoxicity assay, HepG2; assay type: cell-based, human; conditions: human, read-out: Percent (%) cell viability at 100 μM, HepG2 cells
Procedure: In vitro cytotoxicity evaluation […]
with minor modifications, which will be detailed below.
To obtain information regarding the toxicity of our compounds, their impact on the viability of human cells was investigated. HepG2 and A549 cells (2 × 10^4 cells per well) were seeded in 96-well, flat-bottomed culture plates in 100 µL culture medium (DMEM containing 10% fetal calve serum, 1% penicillin-streptomycin). Twenty-four hours after seeding the cells, medium was removed and replaced by medium containing test compounds in a final DMSO concentration of 1%. Compounds were tested in duplicates at a single concentration in 1% DMSO/medium. Epirubicin and doxorubicin were used as positive controls in serial dilutions starting from 10 µM, and rifampicin was used as a negative control (at 100 µM). The living cell mass was determined 48 h after treatment with compounds by adding 0.1 volumes of 3-(4,5-dimethylthiazol-2-yl)-2,5-diphenyltetrazolium bromide (MTT) solution (5 mg/mL sterile PBS) (Sigma, St. Louis, MO) to the wells. After incubating the cells for 30 min at 37 °C (atmosphere containing 5% CO2), medium was removed and MTT crystals were dissolved in 75 µL of a solution containing 10% SDS and 0.5% acetic acid in DMSO. The optical density (OD) of the samples was determined photometrically at 570 nm in a PHERAstar Omega plate reader (BMG labtech, Ortenberg, Germany). To obtain percent viability for each sample, their ODs were related to those of DMSO controls. At least two independent measurements were performed for each compound. The calculation of IC50 was performed using the nonlinear regression function of GraphPad Prism 10 (GraphPad Software, San Diego, CA, USA). […]

[5] = Equilibrium, K D, steady state fit
[6] = Kinetic, K D, global fit of kinetic curves
[7] = Equilibrium, K D, SPR, L. delbrueckii ECF‐FolT2, steady state fit
[8] = Kinetic, K D, SPR, L. delbrueckii ECF‐FolT2, global fit of kinetic curves
[9] = global fit of kinetic curves, read-out: Kinetic, K D
[10] = steady state fit, read-out: Equilibrium, K D
[11] = SPR, L. delbrueckii ECF‐FolT2, global fit of kinetic curves, read-out: Kinetic, K D
[12] = SPR, L. delbrueckii ECF‐FolT2, steady state fit, read-out: Equilibrium, K D
[13] = pH 7.5, SPR, L. delbrueckii ECF‐FolT2, n = 2, read-out: k a
[14] = pH 7.5, SPR, L. delbrueckii ECF‐FolT2, n = 2, read-out: k d

Compound	MIC [1] [µM]	Kd [2, 5] [µM]	Kd [2, 6] [µM]	Kd [3, 7] [µM]	Kd [3, 8] [µM]	viability at 48 h, 100 µM [4] [%]	kon [2] [M⁻¹ s⁻¹]	koff [2] [s⁻¹]	kon ([3]; pH 7.5, read-out: k a) [M⁻¹ s⁻¹]	koff ([3]; pH 7.5, read-out: k d) [s⁻¹]	Kd [2, 9] [µM]	Kd [2, 10] [µM]	Kd [3, 11] [µM]	Kd [3, 12] [µM]	kon [3, 13] [M⁻¹ s⁻¹]	koff [3, 14] [s⁻¹]	viability at 48 h, 100 µM ([4]; HepG2 cells) [%]
O=C(O)c1cc(OCc2cccc3ccccc23)ccc1O [Compound 1]	128 (≈ 37.7 µg/mL)	277 ± 5	276 ± 4	300 ± 20	294 ± 6	20 ± 2											
O=C(O)c1cc(OCc2ccc(Br)c3ccccc23)ccc1O [Compound 2]	8 (≈ 2.99 µg/mL)	170 ± 5	172 ± 2	190 ± 20	185 ± 3	23 ± 7											
CC(C)(C)OC(=O)Nc1ccc(OCc2cccc3ccccc23)cc1C(=O)O [Compound 3]	16 (≈ 6.3 µg/mL)	96 ± 8	99 ± 1	128 ± 9	132 ± 3	49 ± 3	650 ± 9	0.0643 ± 0.0006	570 ± 10	0.0755 ± 0.0008							
O=C(O)c1cccc(NCc2ccc(-c3ccc(Cl)cc3)o2)c1 [Compound 4]	64 (≈ 21 µg/mL)						399 ± 4	0.127 ± 0.001			317 ± 3	304 ± 6	353 ± 5	340 ± 10	325 ± 5	0.115 ± 0.001	88 ± 9
O=C(O)c1cccc(NCc2ccc(-c3cccc(Cl)c3)o2)c1 [Compound 5]	128 (≈ 42 µg/mL)						348 ± 7	0.157 ± 0.002			451 ± 8	420 ± 10	328 ± 6	300 ± 30	570 ± 10	0.187 ± 0.003	106 ± 8
O=C(O)c1cccc(NCc2ccc(-c3ccccc3Cl)o2)c1 [Compound 6]	128 (≈ 42 µg/mL)						376 ± 6	0.147 ± 0.002			391 ± 6	374 ± 6	231 ± 5	230 ± 10	100000	22 ± 3	105 ± 3
